Experimental data: the METLIN SMRT retention time set (Domingo-Almenara et al. 2019)

experiment: gradient 5% acetonitrile 3 min, to 50% in 2 min, to 85% in 15 min, held 3 min, 100 µL/min; conditions: column: Zorbax Extend-C18 2.1 x 50 mm; eluents: water / acetonitrile, 0.1% formic acid
Outline: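 Data were gathered over 3 months by HPLC coupled to a quadrupole time-of-flight mass spectrometer, operated in positive and negative ionization mode. Mixtures of ~100 pure standards ran on a Zorbax Extend-C18 column (2.1 × 50 mm, 1.8 μm) at 100 μL/min, with water and acetonitrile each containing 0.1% formic acid and dead and dwell volumes of 40 μL and 900 μL. Retention time was read from adduct peaks picked by computer and checked manually.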

SMILES	RP-LC retention time [s]
CCN(CC)C(=O)c1ccc2nc(-c3ccc(C)c(C)c3)cn2c1	669
CCOc1ccccc1-c1noc(-c2cc(-c3ccccc3)n[nH]2)n1	952
CN(C)c1ccc(CNC(=O)Cc2cn(C)c3ncccc23)cc1	704
Cn1ncc2c3ccccc3n(CCCC(=O)NCc3cccnc3)c2c1=O	612
CC1CCC(NC(=O)C2CCN(C(=O)c3ncn4c3COC(c3ccccc3)C4)CC2)CC1 (stereo not drawn)	816
Cc1ccc2[nH]cc(CCNC(=O)COc3ccc(Cl)cc3)c2c1	955
Cc1sc(-c2noc(C3CCC3)n2)cc1S(=O)(=O)N1CCC(C(=O)NCc2ccco2)CC1	1010
CN1C(=O)c2cccnc2Sc2cc(NC(=O)C3(c4ccccc4)CC3)ccc21	875
COc1cccc(-n2cc(C(=O)OCc3cccnc3)c3ccccc3c2=O)c1	754
Brc1cccc(-c2noc(Cn3ccnc3)n2)c1	650
CC(C)(C)n1nnnc1C1CC2(CCOCC2)C(=O)N1Cc1cccc(C(F)(F)F)c1 (stereo not drawn)	862
COc1ccc(-c2nc(C)c3c(n2)N(Cc2ccco2)C(=O)CC3)cc1	975
Cc1nn(C)c(C)c1C(=O)N1CCC2(CCC2O)CC1 (stereo not drawn)	600
CCCCN(CC)c1nc(C)nc2c1c(C)cn2-c1c(C)cc(C)cc1C	945
COC(=O)c1cnc(N2CCN(C)CC2)c2ccccc12	610
Cc1ccc2c(NCc3ccc4c(c3)OCO4)c(-c3nc(C)no3)cnc2n1	1070
CCCNC(=O)c1cn2ccnc(-c3ccc(C)cc3)c2n1	878
COCCOCC(=O)N1CCC(c2noc(C3CC3)n2)C1 (stereo not drawn)	619
O=C(c1cccs1)N1[C@H]2CC[C@@H]1c1cnc(-c3ccc(F)cc3)nc1C2	979
Cc1nnc2ccc(-c3noc(-c4ccccc4)n3)cn12	867
NS(=O)(=O)c1ccc(NC(=O)c2ccc(Br)cc2F)cc1	729
CN(C(=O)CSc1nnc(-c2cn(C)nc2-c2ccccc2)n1C)c1ccccc1	712
CCCCN(CCCC)c1nc(-c2ccncc2)nc2ccccc12	992
CCC(=O)Nc1ccc(-n2cnc(C(=O)NC3CCCCCC3)c2)nc1	759
CCN1C(=O)c2cccnc2Sc2cc(NC(C)=O)ccc21	627
CCCCNC(=O)c1cn(-c2cc(-c3nc(C)no3)ccn2)cn1	779

The remaining lines, values ahead:

RP-LC retention time [s]	SMILES
807	COCCN1C(=O)c2ccccc2C(C(=O)NCCc2ccc(OC)cc2)C12CCCC2 (stereo not drawn)
715	CC(NC(=O)C1CCN(c2cncnc2N2CCCCC2)CC1)c1ccc(F)cc1 (stereo not drawn)
811	Cc1ccccc1CC(=O)N1CCCC(COc2ccc(C(=O)N3CCOCC3)cc2)C1 (stereo not drawn)
1020	CCN1C(=O)c2ccccc2Oc2ccc(C(=O)N3CCN(c4cccc(C)c4)C(C)C3)cc21 (stereo not drawn)
730	Cc1ccc(-c2cc3n(n2)CCCN(C(=O)CCN2C(=O)NC(C)(C)C2=O)C3)cc1C
736	O=C(O)c1cc2c(s1)CCN(C(=O)c1ccc(Cl)cc1)C2
616	CC(C)Cn1c(=O)c(N2CCN(C(=O)NCc3ccco3)CC2)nc2ccncc21
668	CCn1cnc(S(=O)(=O)N2CCC(C(=O)N3CCN(c4ccc(OC)cc4)CC3)CC2)c1
844	O=C(NCc1cnoc1-c1ccc(F)cc1)c1ccccc1
702	O=C1C(=O)N(Cc2ccc(C(=O)N3CCCC3)cc2)CCN1Cc1ccc(F)cc1
837	Cn1cc(-c2cc3n(n2)CCCN3C(=O)CCC(=O)NC2CCCCC2)c2ccccc21
728	CCc1ccc(NC(=O)N2C[C@@H](F)C[C@H]2C(=O)N2CCCCC2)cc1
